# In ChEMBL document CHEMBL5053553, “Structure-activity relationship around PI-2620 highlights the importance of the nitrogen atom position in the tricyclic core” (Bioorg Med Chem, 2021):
# Experiments:
# [1] = biological target: Microtubule-associated protein tau (Homo sapiens, UniProt P10636); test: Displacement of [3H]PI-2620 from Tau in human brain homogenate incubated for 60 mins by radioligand binding assay; type: tissue-based
# [2] = biological target: T1, Amine oxidase [flavin-containing] A (Mus musculus, UniProt Q64133); test: Displacement of [18F]-FEH from MAO-A in mouse brain homogenate incubated for 60 mins by imaging analysis; type: tissue-based
# T1 sequence (Q64133 whole entry): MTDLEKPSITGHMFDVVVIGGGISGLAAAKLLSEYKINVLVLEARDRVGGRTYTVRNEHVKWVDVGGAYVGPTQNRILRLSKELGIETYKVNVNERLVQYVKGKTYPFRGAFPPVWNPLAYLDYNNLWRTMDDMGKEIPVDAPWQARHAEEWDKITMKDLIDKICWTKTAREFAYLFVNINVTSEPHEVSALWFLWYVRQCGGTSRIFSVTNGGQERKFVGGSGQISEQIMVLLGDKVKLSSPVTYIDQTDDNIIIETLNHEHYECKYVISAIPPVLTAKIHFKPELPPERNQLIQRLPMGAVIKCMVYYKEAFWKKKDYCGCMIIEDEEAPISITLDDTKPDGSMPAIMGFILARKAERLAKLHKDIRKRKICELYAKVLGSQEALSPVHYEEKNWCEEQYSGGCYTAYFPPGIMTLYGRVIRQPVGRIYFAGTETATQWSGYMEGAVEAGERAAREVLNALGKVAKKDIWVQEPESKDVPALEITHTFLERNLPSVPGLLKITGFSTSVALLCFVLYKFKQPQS
# Microtubule-associated protein tau, sequence (P10636 whole entry): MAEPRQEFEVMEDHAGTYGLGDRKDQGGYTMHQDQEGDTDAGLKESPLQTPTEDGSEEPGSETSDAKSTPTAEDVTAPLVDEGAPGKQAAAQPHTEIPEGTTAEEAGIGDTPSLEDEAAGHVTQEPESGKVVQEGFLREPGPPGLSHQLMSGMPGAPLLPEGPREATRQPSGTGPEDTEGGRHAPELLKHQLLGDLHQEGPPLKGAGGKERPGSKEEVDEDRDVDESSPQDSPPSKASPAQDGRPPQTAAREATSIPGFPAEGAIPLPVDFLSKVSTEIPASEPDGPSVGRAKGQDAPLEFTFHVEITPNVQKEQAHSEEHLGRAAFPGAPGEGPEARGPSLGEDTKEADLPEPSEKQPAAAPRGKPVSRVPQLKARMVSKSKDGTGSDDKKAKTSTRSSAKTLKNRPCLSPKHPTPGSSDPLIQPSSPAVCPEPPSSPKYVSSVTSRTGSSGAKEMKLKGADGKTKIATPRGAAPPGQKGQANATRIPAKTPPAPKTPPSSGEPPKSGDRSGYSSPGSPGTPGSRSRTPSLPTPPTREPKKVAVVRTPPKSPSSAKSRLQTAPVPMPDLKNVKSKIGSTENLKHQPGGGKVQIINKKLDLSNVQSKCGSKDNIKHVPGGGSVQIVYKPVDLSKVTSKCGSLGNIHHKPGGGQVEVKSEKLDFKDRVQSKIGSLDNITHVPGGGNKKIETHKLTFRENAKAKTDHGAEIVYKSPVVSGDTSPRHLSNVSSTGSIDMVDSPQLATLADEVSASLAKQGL
Structure (SMILES),IC50 [1],IC50 [2]
Fc1cc(-c2ccc3c(n2)[nH]c2cccnc23)ccn1,260 nM,–
Fc1cc(-c2ccc3c(n2)[nH]c2ncccc23)ccn1,310 nM,–
Fc1cc(-c2ccc3c(c2)[nH]c2ccncc23)ccn1,3.1 nM,–
Fc1cc(-c2ccc3c(n2)[nH]c2cnccc23)ccn1,36 nM,–
Fc1cc(-c2ccc3c(n2)[nH]c2ccncc23)ccn1,4.9 nM,> 1000 nM
Fc1cc(-c2nc3[nH]c4ccncc4c3s2)ccn1,18 nM,> 1000 nM
Fc1ncccc1-c1ccc2c(n1)[nH]c1ncccc12,> 1000 nM,–
Fc1ncccc1-c1ccc2c(n1)[nH]c1cccnc12,559 nM,–

# Results, then the compound that gave them:
IC50 [1],IC50 [2],Structure (SMILES)
82 nM,> 1000 nM,Fc1cc(-c2cc3[nH]c4ccncc4c3cn2)ccn1
15.5 nM,> 1000 nM,Fc1ncccc1-c1ccc2c(n1)[nH]c1ccncc12
344 nM,> 1000 nM,Fc1ncccc1-c1cnc2c(c1)[nH]c1ccncc12
3.5 nM,7.8 nM,Fc1ncccc1-c1ccc2c(c1)[nH]c1ccncc12
70 nM,–,Fc1ncccc1-c1ccc2c(n1)[nH]c1cnccc12
116 nM,> 1000 nM,Fc1cc(-c2cnc3c(c2)[nH]c2ccncc23)ccn1
732 nM,> 1000 nM,Fc1ncccc1-c1cc2[nH]c3ccncc3c2cn1
